Test results from US12390449B2, “Substituted 2-aminobenzimidazoles analogs as antibiofilm agents” (priority 2018, dated 2025).
Structures can show the parent of a compound that is named as a salt. Where two headings read alike, the source gives them in different places.

Tested on: Salmonella typhimurium ATCC14028 Biofilms
Test: Inhibitory effect of test compounds on Salmonella typhimurium ATCC14028 biofilms (crystal violet, 96-well)
Assay type: cell-based
Conditions: for antibiofilm activity (in words): compared with parent compound 1
Description: Procedure to Determine the Inhibitory Effect of Test Compounds on Salmonella typhimurium ATCC14028 Biofilms: […] Stock solutions of predetermined concentrations of the test compounds were then made in 1 mL of bacterial culture. […] Sample plates were then incubated for 24 h at 30° C. After incubation, the medium was discarded from the wells and the plates were washed thoroughly with water. Plates were then stained with 110 μL of 0.1% solution of crystal violet (CV) and then incubated at ambient temperature for 30 min. Plates were washed with water again and the remaining stain was solubilized with 200 μL of 95% ethanol. A sample of 125 μL of solubilized CV stain from each well was transferred to the corresponding wells of a polystyrene microtiter dish. Biofilm inhibition was quantitated by measuring the OD540 of each well in which a negative control lane wherein no biofilm was formed served as a background and was subtracted out.

[1] = Salmonella enterica, 24 h, read-out: IC50 (μM), inhibition of biofilm formation, S. typhimurium ATCC14028, 24 h at 30° C., crystal violet OD540
[2] = read-out: IC50 (μM), inhibition of biofilm formation, S. typhimurium ATCC14028, 24 h at 30° C., crystal violet OD540, hydrochloride
[3] = read-out: IC50 (μM), inhibition of biofilm formation, S. typhimurium ATCC14028, 24 h at 30° C., crystal violet OD540

Structure (SMILES)	IC50 [1]	other results
CCCCCc1ccc(C(=O)Nc2ccc3c(c2)nc(N)n3CCc2cnc[nH]2)cc1 [Compound 5j, N-(1-(2-(1H-Imidazol-5-yl)ethyl)-2-amino-1H-benzo[d]imidazol-5-yl)-4-pentylbenzamide dihydrochloride]	20 to 40 µM	–
CCCCCCCCn1c(N)nc2cc(NC(=O)c3ccc(CCCCC)cc3)ccc21 [Compound 5a, N-(2-Amino-1-octyl-1H-benzo[d]imidazol-5-yl)-4-pentylbenzamide hydrochloride]	6.66 ± 0.32 µM	–
CCCCCCCCCCn1c(N)nc2cc(NC(=O)c3ccc(CCCCC)cc3)ccc21.Cl [Compound 5m, N-(2-Amino-1-decyl-1H-benzo[d]imidazol-5-yl)-4-pentylbenzamide hydrochloride]	> 50 µM	antibiofilm activity (in words): reduced or completely abolished antibiofilm activity
CCCCCc1ccc(C(=O)Nc2ccc3[nH]c(N)nc3c2)cc1 [Compound 5o, N-(2-Amino-1H-benzo[d]imidazol-5-yl)-4-pentylbenzamide hydrochloride]	20 to 40 µM	–
CCCCCCCCCCCCCC(=O)Nc1ccc2c(c1)nc(N)n2CCCc1ccccc1 [Compound 10t, N-(2-Amino-1-(3-phenylpropyl)-1H-benzo[d]imidazol-5-yhtetradecanamide hydrochloride]	–	IC50 [2]: > 50 µM
CCCCCc1ccc(C(=O)Nc2ccc3nc(N)n(CC)c3c2)cc1 [Compound 9d, N-(2-Amino-1-ethyl-1H-benzo[d]imidazol-6-yl)-4-pentylbenzamide hydrochloride]	20 to 40 µM	–
CCCCCCCCCCC(=O)Nc1ccc2c(c1)nc(N)n2CCCc1ccccc1 [Compound 10i, N-(2-Amino-1-(3-phenylpropyI)-1H-benzo[d]imidazol-5-yhundecanamide hydrochloride]	–	IC50 [3]: 10 to 15 µM
CCCCCc1ccc(C(=O)Nc2ccc3c(c2)nc(N)n3C)cc1.Cl [Compound 5l, N-(2-Amino-1-methyl-1H-benzo[d]imidazol-5-yl)-4-pentylbenzamide hydrochloride]	> 40 µM	antibiofilm activity (in words): reduced or completely abolished antibiofilm activity
CCCCCc1ccc(C(=O)Nc2ccc3c(c2)nc(N)n3CCCC)cc1 [Compound 5f, N-(2-Amino-1-butyl-1H-benzo[d]imidazol-5-yl)-4-pentylbenzamide hydrochloride]	15 to 20 µM	–
CCCCCCn1c(N)nc2ccc(NC(=O)c3ccc(CCCCC)cc3)cc21 [Compound 9b, N-(2-Amino-1-hexyl-1H-benzo[d]imidazol-6-yl)-4-pentylbenzamide hydrochloride]	10 to 15 µM	–
CCCCc1ccc(C(=O)Nc2ccc3c(c2)nc(N)n3CCCc2ccccc2)cc1 [Compound 10f, N-(2-Amino-1-(3-phenylpropyl)-1H-benzo[d]imidazol-5-yl)-4-butylbenzamide hydrochloride]	10 to 15 µM	–
CCCCCc1ccc(C(=O)Nc2ccc3nc(N)n(C(C)C)c3c2)cc1 [Compound 9e, N-(2-Amino-1-isopropyl-1H-benzo[d]imidazol-6-yl)-4-pentylbenzamide hydrochloride]	20 to 40 µM	–
CCCCCCCc1ccc(C(=O)Nc2ccc3c(c2)nc(N)n3CCCc2ccccc2)cc1 [Compound 10m, N-(2-Amino-1-(3-phenylpropyl)-1H-benzo[d]imidazol-5-yl)-4-heptylbenzamide hydrochloride]	15 to 20 µM	–
CCCCCCCC(=O)Nc1ccc2c(c1)nc(N)n2CCCc1ccccc1 [Compound 10q, N-(2-Amino-1-(3-phenylpropyl)-1H-benzo[d]imidazol-5-yl)octanamide hydrochloride]	> 40 µM	–
CCCCCCc1ccc(C(=O)Nc2ccc3c(c2)nc(N)n3CCCc2ccccc2)cc1 [Compound 10l, N-(2-Amino-1-(3-phenylpropyl)-1H-benzo[d]imidazol-5-yl)-4-hexylbenzamide hydrochloride]	15 to 20 µM	–
CCCCCc1ccc(C(=O)Nc2ccc3c(c2)nc(N)n3CCc2ccccc2)cc1 [Compound 1, N-(2-Amino-1-phenethyl-1H-benzo[d]imidazol-5-yl)-4-pentylbenzamide hydrochloride]	13.1 ± 0.6 µM	–
CCCCCc1ccc(C(=O)Nc2ccc3c(c2)nc(N)n3C2CCCCC2)cc1 [Compound 5h, N-(2-Amino-1-cyclohexyl-1H-benzo[d]imidazol-5-yl)-4-pentylbenzamide hydrochloride]	15 to 20 µM	–
CCCCCc1ccc(C(=O)Nc2ccc3c(c2)nc(N)n3CC(C)C)cc1 [Compound 5d, N-(2-Amino-1-isbutyl-1H-benzo[d]imidazol-5-yl)-4-pentylbenzamide hydrochloride]	–	IC50 [3]: 10 to 15 µM

Structure (SMILES)	IC50 [1]	other results
CCCCCCCCC(=O)Nc1ccc2c(c1)nc(N)n2CCCc1ccccc1 [Compound 10n, N-(2-Amino-1-(3-phenylpropyl)-1H-benzo[d]imidazol-5-yl)nonanamide hydrochloride]	15 to 20 µM	–
CCCCCc1ccc(C(=O)Nc2ccc3nc(N)n(CCCC)c3c2)cc1 [Compound 9a, N-(2-Amino-1-butyl-1H-benzo[d]imidazol-6-yl)-4-pentylbenzamide hydrochloride]	10 to 15 µM	–
CCCCCc1ccc(C(=O)Nc2ccc3c(c2)nc(N)n3CCc2c[nH]c3ccccc23)cc1 [Compound 5e, N-(1-(2-(1H-Indol-3-yl)ethyl)-2-amino-1H-benzo[d]imidazol-5-yl)-4-pentylbenzamide hydrochloride]	10 to 15 µM	–
Nc1nc2cc(C(=O)Nc3ccc(Cl)c(Cl)c3)ccc2n1CCCc1ccccc1 [Compound 15, 2-Amino-N-(3,4-dichlorophenyl)-1-(3-phenylpropyl)-1H-benzo[d]imidazole-5-carboxamide hydrochloride]	12.6 ± 1.8 µM	–
CCCCCCCCCCCCn1c(N)nc2cc(NC(=O)c3ccc(CCCCC)cc3)ccc21.Cl [Compound 5n, N-(2-Amino-1-dodecyl-1H-benzo[d]imidazol-5-yl)-4-pentylbenzamide hydrochloride]	> 50 µM	antibiofilm activity (in words): reduced or completely abolished antibiofilm activity
Nc1nc2cc(NC(=O)c3cc(Br)cc(Br)c3)ccc2n1CCCc1ccccc1 [Compound 10c, N-(2-Amino-1-(3-phenylpropyl)-1H-benzo[d]imidazol-5-yl)-3,5-dibromobenzamide hydrochloride]	< 7 µM	IC50 (read-out: IC50 (μM), inhibition of biofilm formation, S. typhimurium ATCC14028, 24 h at 30° C., crystal violet OD540, listed as 15c, hydrochloride): 5.58 ± 0.21 µM
CCCCCc1ccc(C(=O)Nc2ccc3nc(N)n(C)c3c2)cc1 [Compound 9c, N-(2-Amino-1-methyl-1H-benzo[d]imidazol-6-yl)-4-pentylbenzamide hydrochloride]	20 to 40 µM	–
CCCCOc1ccc(C(=O)Nc2ccc3c(c2)nc(N)n3CCCc2ccccc2)cc1 [Compound 10j, N-(2-Amino-1-(3-phenylpropyl)-1H-benzo[d]imidazol-5-yl)-4-butoxybenzamide hydrochloride]	15 to 20 µM	–
Nc1nc2cc(NC(=O)c3ccc(Br)c(Br)c3)ccc2n1CCCc1ccccc1 [Compound 10b, N-(2-Amino-1-(3-phenylpropyl)-1H-benzo[d]imidazol-5-yl)-3,4-dibromobenzamide hydrochloride]	< 7 µM	IC50 (read-out: IC50 (μM), inhibition of biofilm formation, S. typhimurium ATCC14028, 24 h at 30° C., crystal violet OD540, listed as 15b, hydrochloride): 5.38 ± 0.79 µM
CCCCCCCCc1ccc(C(=O)Nc2ccc3c(c2)nc(N)n3CCCc2ccccc2)cc1 [Compound 10r, N-(2-Amino-1-(3-phenylpropyl)-1H-benzo[d]imidazol-5-yl)-4-octylbenzamide hydrochloride]	> 40 µM	IC50 [2]: > 50 µM
CCCCCCC(=O)Nc1ccc2c(c1)nc(N)n2CCCc1ccccc1 [Compound 10p, N-(2-Amino-1-(3-phenylpropyl)-1H-benzo[d]imidazol-5-yl)heptanamide hydrochloride]	20 to 40 µM	–
CCCCCCCCCC(=O)Nc1ccc2c(c1)nc(N)n2CCCc1ccccc1 [Compound 10h, N-(2-Amino-1-(3-phenylpropyl)-1H-benzo[d]imidazol-5-y0decanamide hydrochloride]	–	IC50 [3]: 10 to 15 µM
CCCOc1ccc(C(=O)Nc2ccc3c(c2)nc(N)n3CCCc2ccccc2)cc1 [Compound 10g, N-(2-Amino-1-(3-phenylpropyl)-1H-benzo[d]imidazol-5-yl)-4-propoxybenzamide hydrochloride]	10 to 15 µM	–
CCCCCc1ccc(C(=O)Nc2ccc3c(c2)nc(N)n3C2CCCC2)cc1 [Compound 5g, N-(2-Amino-1-cyclopentyl-1H-benzo[d]imidazol-5-yl)-4-pentylbenzamide hydrochloride]	15 to 20 µM	–
CCCCCCCCCCCC(=O)Nc1ccc2c(c1)nc(N)n2CCCc1ccccc1 [Compound 10s, N-(2-Amino-1-(3-phenylpropyl)-1H-benzo[d]imidazol-5-yhdodecanamide hydrochloride]	–	IC50 [2]: > 50 µM
CCCCCc1ccc(C(=O)Nc2ccc3c(c2)nc(N)n3C(C)C)cc1.Cl [Compound 5k, N-(2-Amino-1-isopropyl-1H-benzo[d]imidazol-5-yl)-4-pentylbenzamide hydrochloride]	20 to 40 µM	antibiofilm activity (in words): reduced or completely abolished antibiofilm activity
CCc1ccc(C(=O)Nc2ccc3c(c2)nc(N)n3CCCc2ccccc2)cc1 [Compound 10o, N-(2-Amino-1-(3-phenylpropyl)-1H-benzo[d]imidazol-5-yl)-4-ethylbenzamide hydrochloride]	20 to 40 µM	–
CCCCCc1ccc(C(=O)Nc2ccc3c(c2)nc(N)n3CCCCc2ccccc2)cc1 [Compound 5b, N-(2-Amino-1-(4-phenylbutyl)-1H-benzo[d]imidazol-5-yl)-4-pentylbenzamide hydrochloride]	9.59 ± 0.23 µM	–
